Experimental data taken from patent US20240148821A1, “PHARMACEUTICAL USE OF CYCLIC PEPTIDE COMPOUND” (CHUGAI SEIYAKU KABUSHIKI KAISHA, priority 2021, published 2024).
Numbered stars: 1 amine (or outer) side, 2 acyl side, 3 side chain; on linkers, the order of the positions; unused ones are H or OH. Bridge positions count the residues as written; N and C are the ends. Square brackets hold non-standard residues; d marks the D form. Peptide text beside a SMILES is read from it. * marks the point of attachment. hPhe(3-Cl-4-CF3) = N[C@@H](CCc1ccc(C(F)(F)F)c(Cl)c1)C(=O)O; NMePhe(4-CF3) = CN[C@@H](Cc1ccc(C(F)(F)F)cc1)C(=O)O; NMeAla(4-thiazolyl) = CN[C@@H](Cc1cscn1)C(=O)O; X20 = Cc1cncc(C[C@@H](C(=O)[*:2])N(C)[*:1])c1; NMePhe(4-Cl) = CN[C@@H](Cc1ccc(Cl)cc1)C(=O)O; NMePhe(4-Me) = CN[C@@H](Cc1ccc(C)cc1)C(=O)O; NMePhe(3-F) = CN[C@@H](Cc1cccc(F)c1)C(=O)O; Phe(2-OMe) = COc1ccccc1C[C@H](N)C(=O)O; Phe(3-I) = N[C@@H](Cc1cccc(I)c1)C(=O)O; NMeCha = CN[C@@H](CC1CCCCC1)C(=O)O; NMeChg = CN[C@H](C(=O)O)C1CCCCC1; N(CH2CH2)2CF2 = FC1(F)CCN(*)CC1; NMeD = CN[C@@H](CC(=O)O)C(=O)O; NMeL = CN[C@@H](CC(C)C)C(=O)O; NMeV = CN[C@H](C(=O)O)C(C)C; d(β3hA) = C[C@@H](N)CC(=O)O; NMeAib = CNC(C)(C)C(=O)O; Nle = CCCC[C@H](N)C(=O)O; Piperidide = C1CCN(*)CC1; Ac5c = NC1(C(=O)O)CCCC1; Aze = O=C(O)[C@@H]1CCN1; Nva = CCC[C@H](N)C(=O)O; Abu = CC[C@H](N)C(=O)O; Ac3c = NC1(C(=O)O)CC1; Aib = CC(C)(N)C(=O)O; NEtG = CCNCC(=O)O; Sar = CNCC(=O)O

The molecules below were run on Human pancreatic cancer cell line AsPC-1 (G12D mutation Kras) (assay: AsPC-1 cell growth inhibition (AsPC-1 CGI)). Conditions: read-out: AsPC-1 cell growth inhibition, 50% growth inhibitory concentration (IC50 value); 96 hours, CellTiter-Glo, values classified in ranges.
Type: cell-based
Procedure: Test compounds were serially dilated with dimethyl sulfoxide, and 200 nL was then dispensed to a U-bottom 96-well plate using Labcyte Echo. […] The cell suspension was dispensed to a. plate containing a test compound at 100 μL per well and incubated at 37° C. in a 5% carbon dioxide gas incubator. 96 hours later, 80 μL of CellTiter-Glo (Promega) was added to each well and fluorescence was measured.

Compound | IC50
CC[C@@H]1NC(=O)[C@H](Cc2cccc(I)c2)NC(=O)CN(C)C(=O)[C@H](Cc2ccc(Cl)cc2)N(C)C(=O)CN(C)C(=O)CN(C)C(=O)[C@H]([C@@H](C)CC)NC(=O)[C@H](CC(C)C)N(C)C(=O)C[C@@H](C(=O)N2CCCCC2)N(C)C(=O)[C@H](CC(C)C)NC(=O)C(C)(C)N(C)C1=O [Compound 457] ([NMeL]I[Sar][Sar][NMePhe(4-Cl)][Sar][Phe(3-I)][Abu][NMeAib]L[NMeD]-Piperidide; lactam N-11) | > 500 nM
CC[C@H](C)[C@@H]1NC(=O)[C@H](CC(C)C)N(C)C(=O)C[C@@H](C(=O)N2CCCCC2)N(C)C(=O)[C@H](CC(C)C)NC(=O)C(C)(C)N(C)C(=O)[C@H](Cc2ccccc2OC)NC(=O)[C@H](Cc2cccc(I)c2)NC(=O)CN(C)C(=O)[C@H](Cc2ccc(C)cc2)N(C)C(=O)[C@@H]2CCN2C(=O)CN(C)C1=O [Compound 459] ([NMeL]I[Sar][Aze][NMePhe(4-Me)][Sar][Phe(3-I)][Phe(2-OMe)][NMeAib]L[NMeD]-Piperidide; lactam N-11) | > 500 nM
CC[C@H](C)[C@@H]1NC(=O)[C@H](CC(C)C)N(C)C(=O)C[C@@H](C(=O)N2CCCCC2)N(C)C(=O)[C@H](C(C)C)N(C)C(=O)C(C)(C)NC(=O)[C@H](CC(=O)N2CCC(F)(F)CC2)N(C)C(=O)[C@H](CCc2ccc(C(F)(F)F)c(Cl)c2)NC(=O)CN(C)C(=O)[C@H](CC2CCCCC2)N(C)C(=O)CN(C)C(=O)CN(C)C1=O [Compound 463] ([NMeL]I[Sar][Sar][NMeCha][Sar][hPhe(3-Cl-4-CF3)][NMeD](N(CH2CH2)2CF2)[Aib][NMeV][NMeD]-Piperidide; lactam N-11) | > 500 nM
CC[C@H](C)[C@@H]1NC(=O)[C@H](CC(C)C)N(C)C(=O)C[C@@H](C(=O)N2CCCCC2)N(C)C(=O)[C@H](C(C)C)N(C)C(=O)C2(CC2)NC(=O)[C@@H]2CCCN2C(=O)[C@H](CCc2ccc(C(F)(F)F)c(Cl)c2)NC(=O)CN(C)C(=O)[C@H](CC2CCCCC2)N(C)C(=O)CN(C)C(=O)CN(C)C1=O [Compound 468] ([NMeL]I[Sar][Sar][NMeCha][Sar][hPhe(3-Cl-4-CF3)]P[Ac3c][NMeV][NMeD]-Piperidide; lactam N-11) | > 500 nM
CC[C@H](C)[C@@H]1NC(=O)[C@H](CC(C)C)N(C)C(=O)C[C@@H](C(=O)N2CCCCC2)N(C)C(=O)[C@H](C2CCCCC2)N(C)C(=O)C2(CCCC2)NC(=O)[C@H](Cc2cncc(C)c2)N(C)C(=O)[C@H](CCc2ccc(C(F)(F)F)c(Cl)c2)NC(=O)CN(C)C(=O)[C@H](CC2CCCCC2)N(C)C(=O)[C@@H]2CCN2C(=O)CN(C)C1=O [Compound 477] ([NMeL]I[Sar][Aze][NMeCha][Sar][hPhe(3-Cl-4-CF3)][X20][Ac5c][NMeChg][NMeD]-Piperidide; lactam N-11) | > 500 nM
CCCC[C@@H]1NC(=O)[C@H](Cc2cccc(I)c2)NC(=O)CN(C)C(=O)[C@H](Cc2ccc(Cl)cc2)N(C)C(=O)CN(C)C(=O)CN(C)C(=O)[C@H]([C@@H](C)CC)NC(=O)[C@H](CC(C)C)N(C)C(=O)C[C@@H](C(=O)N2CCCCC2)N(C)C(=O)[C@H](CC(C)C)NC(=O)[C@H](Cc2cccc(F)c2)N(C)C1=O [Compound 483] ([NMeL]I[Sar][Sar][NMePhe(4-Cl)][Sar][Phe(3-I)][Nle][NMePhe(3-F)]L[NMeD]-Piperidide; lactam N-11) | > 500 nM
CCC[C@@H]1NC(=O)[C@H](CC(C)C)N(C)C(=O)C[C@@H](C(=O)N2CCCCC2)N(C)C(=O)[C@H](C2CCCCC2)N(C)C(=O)C2(CCCC2)NC(=O)[C@@H]2CCCN2C(=O)[C@H](CCc2ccc(C(F)(F)F)c(Cl)c2)NC(=O)CN(C)C(=O)[C@H](CC2CCCCC2)N(C)C(=O)CN(C)C(=O)CN(C)C1=O [Compound 495] ([NMeL][Nva][Sar][Sar][NMeCha][Sar][hPhe(3-Cl-4-CF3)]P[Ac5c][NMeChg][NMeD]-Piperidide; lactam N-11) | > 500 nM
CCCC[C@@H]1NC(=O)[C@H](Cc2cccc(I)c2)NC(=O)CN(C)C(=O)[C@H](Cc2ccc(Cl)cc2)N(C)C(=O)CN(C)C(=O)CN(C)C(=O)[C@H]([C@@H](C)CC)NC(=O)[C@H](CC(C)C)N(C)C(=O)C[C@@H](C(=O)N2CCCCC2)N(C)C(=O)[C@H](CC(C)C)NC(=O)[C@H](Cc2ccc(C(F)(F)F)cc2)N(C)C1=O [Compound 498] ([NMeL]I[Sar][Sar][NMePhe(4-Cl)][Sar][Phe(3-I)][Nle][NMePhe(4-CF3)]L[NMeD]-Piperidide; lactam N-11) | > 500 nM
CC[C@H](C)[C@@H]1NC(=O)[C@H](CC(C)C)N(C)C(=O)C[C@@H](C(=O)N2CCCCC2)N(C)C(=O)[C@H](C2CCCCC2)N(C)C(=O)C2(CCCC2)NC(=O)[C@H](Cc2cscn2)N(C)C(=O)[C@H](CCc2ccc(C(F)(F)F)c(Cl)c2)NC(=O)CN(C)C(=O)[C@H](CC2CCCCC2)N(C)C(=O)CN(C)C(=O)CN(C)C1=O [Compound 500] ([NMeL]I[Sar][Sar][NMeCha][Sar][hPhe(3-Cl-4-CF3)][NMeAla(4-thiazolyl)][Ac5c][NMeChg][NMeD]-Piperidide; lactam N-11) | > 500 nM
CC[C@H](C)[C@@H]1NC(=O)[C@H](CC(C)C)N(C)C(=O)C[C@@H](C)NC(=O)[C@H](C(C)C)N(C)C(=O)C2(CCCC2)NC(=O)[C@@H]2CCCN2C(=O)[C@H](CCc2ccc(C(F)(F)F)c(Cl)c2)NC(=O)CN(C)C(=O)[C@H](CC2CCCCC2)N(C)C(=O)CN(CC)C(=O)CN(C)C1=O [Compound 504] (cyclo([Ac5c][NMeV][d(β3hA)][NMeL]I[Sar][NEtG][NMeCha][Sar][hPhe(3-Cl-4-CF3)]P)) | > 500 nM
